Data from PMC12421817, “c-di-GMP regulates bacterial NAD biosynthesis via targeting the transcriptional repressor NadR” (mBio, 2025).

Experiments:
NadR = target: T1, NadR (Salmonella enterica, UniProt P24518); assay: ITC; also UV-crosslinking with unlabeled competitor, EMSA, enzyme activity stimulation; format: binding
T1 construct: N-terminal His6-tagged NadR
T1 sequence (P24518 1-410): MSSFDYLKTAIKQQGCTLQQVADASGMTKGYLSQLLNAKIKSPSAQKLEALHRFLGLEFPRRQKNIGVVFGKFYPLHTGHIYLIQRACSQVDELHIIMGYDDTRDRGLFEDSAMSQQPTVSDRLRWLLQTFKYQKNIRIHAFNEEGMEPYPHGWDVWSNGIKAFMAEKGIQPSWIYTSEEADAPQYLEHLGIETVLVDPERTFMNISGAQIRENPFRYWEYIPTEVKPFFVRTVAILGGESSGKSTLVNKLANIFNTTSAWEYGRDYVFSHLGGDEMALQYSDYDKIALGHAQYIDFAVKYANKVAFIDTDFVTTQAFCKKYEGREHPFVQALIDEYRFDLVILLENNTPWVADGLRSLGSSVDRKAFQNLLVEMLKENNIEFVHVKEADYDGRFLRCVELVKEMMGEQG

YcgR = target: T2, YcgR (Salmonella enterica, UniProt Q8ZP19); assay: UV-crosslinking with biotinylated c-di-GMP (YcgR as positive-control protein); format: binding
T2 construct: His6-YcgR

[1] = target: T3, NadR (Salmonella enterica serovar Typhimurium) (UniProt P24518); assay: EMSA; settings: EMSA: 50 ng DNA, 20 mM Tris pH 7.5, 100 mM NaCl, 10% glycerol, 4 mM MgCl2, 1% NP-40, 1 mM DTT, 25 uL, 20 min room temperature; 6% native PAGE, 0.5x TBE, SYBR …
T3 sequence: T1 sequence (P24518 1-410)

T2 sequence (Q8ZP19 whole entry): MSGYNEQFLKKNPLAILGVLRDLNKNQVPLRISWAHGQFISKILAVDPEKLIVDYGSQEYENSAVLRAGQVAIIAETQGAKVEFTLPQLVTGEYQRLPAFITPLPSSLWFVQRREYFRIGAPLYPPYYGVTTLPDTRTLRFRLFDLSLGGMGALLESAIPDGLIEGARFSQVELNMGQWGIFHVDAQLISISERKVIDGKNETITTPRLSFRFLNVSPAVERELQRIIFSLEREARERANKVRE

Row | Compound | Kd (NadR) [µM] | UV-crosslinking with biotinylated c-di-GMP (YcgR as positive-control protein) (YcgR) | binding [1]
1 | Nc1nc2c(ncn2[C@@H]2O[C@@H]3COP(=O)(O)O[C@H]4[C@@H](O)[C@H](n5cnc6c(=O)[nH]c(N)nc65)O[C@@H]4COP(=O)(O)O[C@H]3[C@H]2O)c(=O)[nH]1 [c-di-GMP] | 0.16 ± 0.02 | YcgR could obviously bind biotinylated c-di-GMP, while InvF, which was used as a negative control, showed no biotin-binding signal | –
2 | GCTCATCGTGGCTTCTCGTTTTACTGACTTAACGAAACAACCGAATGAAAGCGTAATAAACGCCACAATCGGTTAATTTGTTTTATATGCTAAACAAGATAGCTGATTCAATAAGGAAAGTCACAATAATTACGTAGCCCCGTATCTGATGGCGGCGTAACGTCTTATCTGGCCTACGTGAGCGGTGCCGTCTGTAGGCCTGAT (double strand) [nadA-pnuC promoter] | – | – | binds
3 | GGTTCTTGTTTAATTTACTAAACATGGTTGCGGCAGATTAGCACTATATGGCGCTAAAAAGCACGTTATGATTTCGCTGGTGTTGTGCTTATTAAACATAAAATAAAAATACGGCGAGAGATAAACGGCAAAAAATATTTTATAGGGCAGGGTGTTAGCGTCGGATTTTGTAGTGAAATAAAGATGCTGTTAGGTTACTC (double strand) [nadB promoter] | – | – | binds
